Like-named read-outs stand apart in the source and are kept apart here. Starred links: 1 amine or outer side, 2 acyl side, 3 side chain; linkers in the order of their positions; H or OH if unused. Positions of bridges follow the written chain, without caps; N, C: chain ends. Non-standard residues stand in square brackets, D forms with d. Residues, ends and D or L forms follow the SMILES beside them. Chains are numbered I, II in the order given. Actinocin(9to1) = Cc1c2oc3c(C)ccc(C(=O)[*:1])c3nc-2c(C(=O)[*:2])c(N)c1=O; NMeV = CN[C@H](C(=O)O)C(C)C; Sar = CNCC(=O)O
How the values were obtained:
p33^QIK [1] = test: In-gel kinase assay (MBP substrate) of p33^QIK activity in treated NIH3T3 cultures; format: cell-based, mouse
Protocol: (§1) Mouse NIH3T3 fibroblast cultures were maintained in Dulbecco's modified Eagle's medium (DMEM)(BRL/GIBCO, Grand Island, N.Y.) supplemented with 5% calf serum, 50 units/ml penicillin, and 5 mcg/ml streptomycin, and cultivated at 37° C.
(§2) Mouse 10T1/2 fibroblast cultures were maintained in Basal medium Eagle (BRL/GIBCO, Grand Island, N.Y.) supplemented with 10% heat-inactivated fetal bovine serum, 50 U/ml penicillin, and 5 μg/ml streptomycin, and cultivated at 37° C. Cells synchronized in quiescent state were growth-arrested by serum starvation for 48 hr. Actinomycin D (ActD), cycloheximide (CHXM), 12-0-tetradecanoylphorbol 13-acetate (TPA), staurosporine (STSP) (Sigma Chemical, St. Louis, Mo.), sodium fluoride (NaF), sodium orthovanadate (Na3VO4) (Fisher Scientific, Pittsburgh, Pa.), and FR901228 (FR)(NCI, Frederick, Md.) were diluted in cultured medium before treatment of cultured cells. A broad range caspase inhibitor Z-Asp-[(2,6-dichlorobenzoyl)oxy]methane (Z-D-CH2-DCB) (Dolle et al., 1994; Mashima et al., 1995)(CALBIOCHEM, La Jolla, Calif.) was dissolved in dimethyl sulfoxide and diluted in cultured medium for treatment. Recombinant human Caspase-3 was purchased from Alexis Biochemicals (San Diego, Calif.). Protein phosphatase 1 (PP1) and Lambda protein phosphatase (λPPase) were purchased from NE BioLabs (Beverly, Mass.). Production of rabbit polyclonal antibody Ab-KQ to p63^Krsl and p33^QIK was made using peptide sequences of Krsl as antigens (Alpha Diagnostic International, San Antonio, Tex.). UV irradiation was carried out using a UV Crosslinker (Stratagene, La Jolla, Calif.).
(§3) Cells were lysed with 30 strokes of a tight-fitting Dounce homogenizer in lysis A buffer (10 mM KH2PO4, 1 mM EDTA, 5 mM EGTA, 10 mM MgCl2, 50 mM […], 1 mM Na3VO4, 2 mM dithiothreitol) (Wang et al., 1992). Cytoplasmic proteins (S20) were isolated from the supernatants after centrifugation of crude lysates at 20,000 ×g for 20 min. Protein concentration in S20 was measured by using the BCA assay (Pierce, Rockford, Ill.). Immunoprecipitation of p33^QIK was carried out by incubation of S20 with the specific antibody Ab-KQ at 0° C. for 1 hr. Immune complexes were adsorbed to Pansorbin (Staphylococcus aureus) (CALBIOCHEM, La Jolla, Calif.) at 0° C. for 30 min and washed with STE buffer (50 mM Tris-HCl, pH 7.0, 150 mM NaCl, 1 mM Na2 EDTA) supplemented with 0.1 mM DTT and 0.1% NP-40 and ST buffer supplemented with 1 mM DTT.
(§4) MBP (BRL/GIBCO, Grand Island, N.Y.) was used as a substrate in the assay and the in-gel kinase assay was performed as previously described (Wang et al., 1992). Briefly, 10% SDS-polyacrylamide gel (SDS-PAG) was copolymerized with 0.4 mg/ml MBP. Cellular proteins were resolved in the MBP-immobilized SDS-PAG, followed by rinsing the gel with 20% isopropanol in buffer B (100 mM Tris, pH 8, 5 mM β-mercaptoethanol). The gel was denatured in buffer B supplemented with 6 M guanidine-HCl and renatured with buffer B supplemented with 0.04% Tween 40 (Kameshita and Fujisawa, 1989). Kinase reaction was carried out by incubating the gel with kinase buffer (20 Mm Tris, pH 7.2, 10 mM MgCl2, 15 mM β-glycerolphosphate) supplemented with 50 μM γATP and 50 μCi of [γ-^32P]ATP at 22° C. for 30 min. The gel was washed with 1% sodium pyrophosphate in 5% trichloroacetic acid. Protein kinases which phosphorylated MBP in the gel were detected by autoradiography of the [γ^32P]-labeled MBP.

p44/42^Erk = format: cell-based, mouse
Protocol: as §1, §2, §3, §4

NIH3T3 cultures = test: Cell death in quiescent NIH3T3 cultures; format: cell-based, mouse; conditions: quiescent cultures treated with ActD or CHXM for 3 hr
33 kDa-MBP kinase = conditions: MCF-7 and MDA-MB361 cells treated with FR (Rajgolikar et al., 1998); cited from earlier work
p33^QIK [2] = test: In-gel kinase assay of p33^QIK activity in 10T1/2 cultures; format: cell-based; conditions: mouse fibroblast 10T1/2 cultures treated with FR
Protocol: as §2, with “Production of rabbit polyclonal antibody Ab-KQ to p63^Krsl and p33^QIK was made using peptide sequences of Krsl as antigens (Alpha Diagnostic International, San Antonio, Tex.). UV irradiation was carried out using a UV Crosslinker (Stratagene, La Jolla, Calif.).” left out
(§5) MBP (BRL/GIBCO, Grand Island, N.Y.) was used as a substrate in the assay and the in-gel kinase assay was performed as previously described (Wang et al., 1992). […] Protein kinases which phosphorylated MBP in the gel were detected by autoradiography of the [γ^32P]-labeled MBP.

NIH3T3 cells = test: Flow cytometric analysis of DNA content (cell cycle phase); format: cell-based, mouse
Protocol: After rinsing with phosphate buffered saline (PBS), cells were trypsinized from culture dishes, rinsed with Ca^++ and Mg^++ free PBS, fixed in 70% cold ethanol, and stained with 10 μg/ml propidium iodide (PI) for 30 min (Darzynkiewicz et al., 1995). Flow cytometry analysis was performed on the Coulter EPICS Elite Cytometer (Hialeah, Fla.) using 15 mW air-cooled argon laser producing 488-nm light in which PI fluorescence light emission is collected with a 610LPDC filter. Extended analysis of DNA content and calculation of the percentage of cells in each phase of the cell cycle were performed on Multicycle software (Phoenix Flow System, San Diego, Calif.).

p63^Krsl = test: In-gel kinase assay (MBP substrate) of p63^Krsl activity in treated NIH3T3 cultures; format: cell-based, mouse; conditions: quiescent NIH3T3 cultures, 100 nM STSP, 2 hr
Protocol: as §1
Mouse 10T1/2 fibroblast cultures were maintained in Basal medium Eagle (BRL/GIBCO, Grand Island, N.Y.) supplemented with 10% heat-inactivated fetal bovine serum, 50 U/ml penicillin, and 5 μg/ml streptomycin, and cultivated at 37° C. Cells synchronized in quiescent state were growth-arrested by serum starvation for 48 hr. […]
Cells were lysed with 30 strokes of a tight-fitting Dounce homogenizer in lysis A buffer (10 mM KH2PO4, 1 mM EDTA, 5 mM EGTA, 10 mM MgCl2, 50 mM […], 1 mM Na3VO4, 2 mM dithiothreitol) (Wang et al., 1992). […] Protein concentration in S20 was measured by using the BCA assay (Pierce, Rockford, Ill.). […]
as §5

cells = conditions: cited from earlier work
[3] = quiescent NIH3T3 cultures (48 hr serum starvation) stimulated with reagent, 1-6 hr
[4] = proliferating NIH3T3 cultures, 5 nM FR, 24 hr
[5] = NIH3T3 synchronized by serum starvation, 18 hr serum, then 10 nM STSP for 24 hr

[F-].[Na+] [sodium fluoride]
kinase activity of p33^QIK (p33^QIK [1]; [3]): resulted in deactivation of p33^QIK | kinase activity of p44/42^Erk (p44/42^Erk; [3]): induced p44/42^Erk activity

Cc1c2oc3c(C)ccc(C(=O)N[C@@H]4C(=O)N[C@H](C(C)C)C(=O)N5CCC[C@H]5C(=O)N(C)CC(=O)N(C)[C@@H](C(C)C)C(=O)O[C@@H]4C)c3nc-2c(C(=O)N[C@@H]2C(=O)N[C@H](C(C)C)C(=O)N3CCC[C@H]3C(=O)N(C)CC(=O)N(C)[C@@H](C(C)C)C(=O)O[C@@H]2C)c(N)c1=O [ActD, Actinomycin D] (I: T[dV]P[Sar][NMeV] / II: T[dV]P[Sar][NMeV]; ester I:1-I:C, II:1-II:C; linker I:N-II:N via Actinocin(9to1))
cell death (NIH3T3 cultures): extensive cell death occurred | kinase activity of p33^QIK (p33^QIK [1]; quiescent NIH3T3, absence of serum, 5 μg/ml ActD or 10 μg/ml CHXM, 1 or 3 hr): significant increases of p33^QIK activity | TPA-induced deactivation of p33^QIK (p33^QIK [1]; quiescent NIH3T3, co-treatment with 100 ng/ml TPA, 5 μg/ml ActD or 10 μg/ml CHXM, 1 or 3 hr): blockage of the TPA-induced deactivation of p33^QIK but also in an increase in the kinase activity of p33^QIK | serum-induced down-regulation of p33^QIK activity (p33^QIK [1]; quiescent NIH3T3, co-treatment with 10% serum, 5 μg/ml ActD or 10 μg/ml CHXM, 1 or 3 hr): blocked the serum-induced down-regulation of p33^QIK activity | kinase activity of p44/42^Erk (p44/42^Erk; quiescent NIH3T3 treated with serum or TPA in the presence of ActD or CHXM): constant activation of p44/42^Erk

C/C=C1\NC(=O)[C@H]2CSSCC/C=C/[C@H](CC(=O)N[C@H](C(C)C)C(=O)N2)OC(=O)[C@H](C(C)C)NC1=O [FR, FR901228]
33 kDa-MBP kinase activity (33 kDa-MBP kinase): induction of a 33 kDa-MBP kinase activity | kinase activity of p33^QIK (p33^QIK [1]; [4]): p33^QIK activity was induced | kinase activity of p33^QIK (p33^QIK [2]): Activation of p33^QIK was also detected | cell population in each phase of the cell cycle (NIH3T3 cells; [4]): growth arrest of cells in G0/G1 phase was evident

CN[C@@H]1C[C@H]2O[C@@](C)([C@@H]1OC)n1c3ccccc3c3c4c(c5c6ccccc6n2c5c31)C(=O)NC4 [STSP, staurosporine]
kinase activity of p63^Krsl (p63^Krsl): activated p63^Krsl | kinase activity of p33^QIK (p33^QIK [1]; [5]): activation of p33^QIK was detected | concentration arresting cells in G2 phase (cells; high concentration): 100 to 150 nM | concentration arresting cells in early G1 phase (cells; low concentration): 2 to 20 nM | cell population in each phase of the cell cycle (NIH3T3 cells; [5]): a major population of cells was arrested in G0/G1 state

sodium orthovanadate [sodium vanadate]
kinase activity of p33^QIK (p33^QIK [1]; [3]): accelerated deactivation of p33^QIK | kinase activity of p44/42^Erk (p44/42^Erk; [3]): profound and constant activation of p44/42^Erk

Source: patent US20030170252A1, “Antibody compositions specific for p33QIK and p63Krs1 polypeptides and uses thereof” (priority 2000, published 2003)
